Laboratory results: US20050159345A1 (Boehringer Ingelheim International GmbH, priority 2002, published 2005)

Legend:
HCV replicon 1b = assay: Cell-based HCV 1b RNA replicon assay; settings: Hepatitis C virus, 72 h; Huh-7-derived replicon cells, 3 day incubation, HCV RNA by RT-PCR
Procedure: These cells were used to establish a sensitive HCV RNA replication cell-based assay for testing candidate test compounds.
Huh7 cells that stably maintain a subgenomic HCV replicon were established as previously described (Lohman et al. 1999; WO 02/052015). The cells were seeded into a 96 well cell culture cluster at 1×10^4 cells per well in DMEM complemented with 10% FBS, PenStrep (Life Technologies) and […] Geneticin. Cells were incubated in a 5% CO2 incubator at 37° C. until addition of various concentrations of the test compound.
The test compound was prepared for use in the assay as follows. The test compound in 100% DMSO was added diluted in assay Medium for a final DMSO concentration of 0.5% and the solution was sonicated for 15 min and filtered through a […] Millipore Filter Unit. Serial dilutions of the test compounds were prepared using Assay Medium (containing 0.5% DMSO).
Cell culture medium was aspirated from the 96-well plate containing the cells and the appropriate dilution of test compound in assay medium was transferred to independent wells of the cell culture plate which was incubated at 37° with 5% CO2.
Following a 3 day-incubation period, the cells were washed with PBS and total cellular RNA was extracted with the RNeasy Mini Kit® and Qiashredder® from Qiagen. RNA from each well was eluted in 50 μL of H2O. RNA was quantified by optical density at 260 nm on the Cary 1E® UV-Visible spectrophotometer. The HCV RNA replicon copy number was evaluated by real-time RT-PCR with the Abi Prism® 7700 Sequence Detection System. The TAQMAN E® RT-PCR kit provides a system for the detection and analysis of RNA. Direct detection of the reverse transcription polymerase chain reaction (RT-PCR) product with no downstream processing was accomplished by monitoring the increase in fluorescence of a dye-labeled DNA probe. The nucleotide sequence of both primers and probe was located in the 5′ region of the HCV genome. The replicon copy number was then evaluated using a standard curve made with known amounts of replicon copy (supplemented with 50 ng of wild type Huh-7 RNA) assayed in the same reaction mix. The following thermal cycle parameters were used for the RT-PCR reaction on the ABI Prism® 7700 Sequence Detection System. Conditions were optimized for HCV detection. Quantification is based on the threshold cycle, where the amplification plot crosses a defined fluorescence threshold. Comparison of the threshold cycles provides a highly sensitive measure of relative template concentration in different samples. Monitoring during early cycles, when PCR fidelity is at its highest, provides precise data for accurate quantification. The relative template concentration can be converted to real numbers by using the standard curve of HCV with known number of copy.
The level of inhibition (% inhibition) of each well containing test compound was calculated with the following equation (CN═HCV Replicon copy number): [formula]
The calculated % inhibition values were then used to determine EC50, slope factor (n) and maximum inhibition (Imax) by the non-linear regression routine NLIN procedure of SAS using the following equation: [formula]

[1] = molecular target: T1, HCV genotype 2a-c NS3-NS4A protease (UniProt P26660); assay: Inhibition constant (Ki) determination, genotype 2a-c; type: biochemical; settings: read-out: Ki HCV genotype 2a-c
T1 sequence (P26660 1031-1661): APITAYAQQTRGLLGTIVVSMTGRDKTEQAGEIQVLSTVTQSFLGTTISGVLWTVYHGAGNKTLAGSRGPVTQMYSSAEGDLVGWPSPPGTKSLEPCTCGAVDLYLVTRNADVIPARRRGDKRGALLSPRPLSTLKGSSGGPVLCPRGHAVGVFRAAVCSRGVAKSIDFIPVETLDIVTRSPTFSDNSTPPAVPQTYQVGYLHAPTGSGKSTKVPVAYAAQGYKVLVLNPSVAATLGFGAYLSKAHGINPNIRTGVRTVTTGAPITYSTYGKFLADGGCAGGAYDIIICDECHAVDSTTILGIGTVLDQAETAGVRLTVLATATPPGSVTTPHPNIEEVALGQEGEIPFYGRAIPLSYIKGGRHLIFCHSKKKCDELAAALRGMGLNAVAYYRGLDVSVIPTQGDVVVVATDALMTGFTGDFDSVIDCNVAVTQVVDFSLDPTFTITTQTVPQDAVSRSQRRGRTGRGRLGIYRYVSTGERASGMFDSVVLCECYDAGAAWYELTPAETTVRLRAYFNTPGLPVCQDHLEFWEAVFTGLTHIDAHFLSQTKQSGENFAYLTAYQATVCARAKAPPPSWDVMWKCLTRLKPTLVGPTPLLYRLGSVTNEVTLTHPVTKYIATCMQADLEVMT

[2] = molecular target: T2, HCV genotype 2b NS3-NS4A protease (UniProt P26661); assay: Inhibition constant (Ki) determination, genotype 2b; type: biochemical; settings: read-out: Ki HCV genotype 2b
T2 construct: fused on or other part: 28 extra N-terminal residues with a hexahistidine tag and an rTEV cleavage site
T2 sequence (P26661 1031-1661): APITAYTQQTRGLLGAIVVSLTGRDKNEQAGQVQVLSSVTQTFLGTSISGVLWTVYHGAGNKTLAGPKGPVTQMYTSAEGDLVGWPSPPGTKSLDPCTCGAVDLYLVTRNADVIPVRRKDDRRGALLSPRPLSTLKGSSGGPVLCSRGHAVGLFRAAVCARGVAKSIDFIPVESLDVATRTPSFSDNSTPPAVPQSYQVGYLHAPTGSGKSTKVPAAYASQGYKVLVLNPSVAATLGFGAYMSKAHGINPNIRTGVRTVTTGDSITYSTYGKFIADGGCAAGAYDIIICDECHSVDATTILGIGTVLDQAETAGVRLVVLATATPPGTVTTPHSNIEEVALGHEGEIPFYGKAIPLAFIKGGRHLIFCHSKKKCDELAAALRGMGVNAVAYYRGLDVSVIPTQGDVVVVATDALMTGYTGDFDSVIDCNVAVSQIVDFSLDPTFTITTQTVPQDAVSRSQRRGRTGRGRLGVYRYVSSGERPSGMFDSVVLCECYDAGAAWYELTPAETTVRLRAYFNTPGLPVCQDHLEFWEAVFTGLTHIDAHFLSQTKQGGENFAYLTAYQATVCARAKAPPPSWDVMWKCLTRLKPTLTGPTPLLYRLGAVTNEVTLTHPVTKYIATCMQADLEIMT

SMILES	EC50 (HCV replicon 1b) [nM]	Ki [1] [nM]	Ki [2] [nM]
COc1ccc2c(O[C@@H]3C[C@H]4C(=O)N[C@]5(C(=O)O)CC5/C=C\CCCCC[C@H](NC(=O)OC(C)(C)C)C(=O)N4C3)cc(-c3csc(NC(C)=O)n3)nc2c1 (some centres unmarked) [III]	4.7		
COc1ccc2c(O[C@@H]3C[C@H]4C(=O)N[C@]5(C(=O)O)CC5/C=C\CCCCC[C@H](NC(=O)OC5CCCC5)C(=O)N4C3)cc(-c3csc(NC(C)C)n3)nc2c1 (some centres unmarked) [IV]	1	86	83
COc1ccc2c(O[C@@H]3C[C@H]4C(=O)N[C@]5(C(=O)O)CC5/C=C\CCCCC[C@H](NC(=O)OC(C)(C)C)C(=O)N4C3)cc(-c3ccccc3)nc2c1 (some centres unmarked) [II]	27		
